According to patent publication US9365572B2, “PI3K and/or mTOR inhibitor” (XUANZHU PHARMA CO., LTD., priority 2012, dated 2016):

Columns and labels:
[1] = In vivo pharmacokinetics assay in rat; settings: male, SD, plasma, rats; for Vd: read-out: Vss; for bioavailability: P.O 4 mg/kg vs I.V 2 mg/kg, read-out: F % (absolute bioavailability)
Description: Test animals: male SD rats, weighing 190-260 g. Intravenous bolus injection (I.V.) and gavage (P.O.) administrations were each applied to three rats.
Compound 5, for both I.V and P.O administrations, was solubilized with a solution of 30% DMF+50% PEG400+20%(0.9% sodium chloride injection)(the pH being adjusted with a suitable amount of an aqueous hydrochloric acid solution (2 mol/L)).
Compound 6, for both I.V and P.O administrations, was solubilized with a solution of 30% DMF+30% PEG400+5%0.1 mol/lhydrochloric acid+[…] normal saline.
Compound 30 for I.V administration was solubilized with a solution of 30% DMF+50% PEG400+20% normal saline; Compound 30 for P.O administration was solubilized with a solution of 5% DMSO+30% polyoxyethylene castor oil+65% normal saline.
Compound 30 hydrochloride for I.V administration was solubilized with a solution of 30% DMF+50% PEG400+20% sterile water for injection.
I.V blood sampling time point: 0.083 h, 0.25 h, 0.5 h, 1 h, 2 h, 4 h, 6 h, 8 h and 24 h after the administration, P.O blood sampling time point: 0.17 h, 0.5 h, 1 h, 2 h, 4 h, 6 h, 8 h and 24 h after the administration.
About 100 μl of whole blood was taken at each time point, anticoagulated with heparin sodium, and centrifugated at 8,000 rpm in a high-speed centrifuge for 6 minutes to separate plasma, and the resulting plasma was frozen at −80° C. in a refrigerator.
The plasma sample was treated with a liquid-liquid extraction. 20 μL of plasma was taken. A solution of BEZ-235 (Novartis, Phase II) in tertbutylmethylether (600 μL, 10 ng/mL) was added as internal standard. The mixture was rotated vertically at 1500 rpm for 10 mins and then centrifugated at 12000 rpm for 5 mins. 400 μL of the supernate was taken and dried under nitrogen. The dried substance was redissolved in 200 μL methanol:water (7:3, V/V) for LC-MS/MS analysis.
Calculation Absolute bioavailability F%=[AUC]last (P.O)*Dose(I.V)/[AUC]last (I.V)*Dose(P.O)

[2] = system: Lovo; assay: In vitro cytological inhibitory activity (XTT); assay type: cell-based; settings: Homo sapiens, 72 hrs
Description: Lovo: Human colon carcinoma cell line;
(§1) 1. Preparation of agents and compounds:
(§2) • 1.1 Preparation of phosphoric acid buffering solution (PBS): 8 g NaCl, 0.2 g KCl, 1.44 g Na2HPO4 and 0.24 g KH2PO4 were weighed and added to 800 mL ultrapure water. The mixture was adjusted to pH=7.4, and ultrapure water was added to the metered volume of IL. Then the autoclaving was conducted for 20 mins. • 1.2 Preparation of XTT detection working solution: 100 mg (2,3-Bis-(2-methoxy-4-nitro-5-sulfophenyl)-2H-tetrazolium-5-carboxanilide); 2,3-bis(2-methoxy-4-nitro-5-sulfophenyl)-5-[(phenylamino)carbonyl]-2H-tetrazolium hydroxide (XTT) powder was weighed, and dissolved under protection from light 300 mL of phenol red-free and serum-free RPMI1640 culture, which had been warmed up to 50° C. The resulting mixture was filtered, packaged and used immediately or in one week. The complete process was conducted under protection from light. • 1.3 Preparation of the test compound • Preparation of the stock solution of the test compound: The test compound powder was dissolved in DMSO in a concentration of 10 mM. • Preparation of the gradiently diluted solution of the test compound: 10 mM of the stock solution of the test compound was successively and gradiently diluted with DMSO by 4 folds for 10 concentrations. […]

[3] = molecular target: Histamine H3 (Homo sapiens (Human), UniProt Q9Y5N1); assay: Radioligand binding assay No. 239820; settings: test substance 10 μM, read-out: Inhibitory rate (%), Histamine H3
Chain of Histamine H3 (Q9Y5N1 whole entry): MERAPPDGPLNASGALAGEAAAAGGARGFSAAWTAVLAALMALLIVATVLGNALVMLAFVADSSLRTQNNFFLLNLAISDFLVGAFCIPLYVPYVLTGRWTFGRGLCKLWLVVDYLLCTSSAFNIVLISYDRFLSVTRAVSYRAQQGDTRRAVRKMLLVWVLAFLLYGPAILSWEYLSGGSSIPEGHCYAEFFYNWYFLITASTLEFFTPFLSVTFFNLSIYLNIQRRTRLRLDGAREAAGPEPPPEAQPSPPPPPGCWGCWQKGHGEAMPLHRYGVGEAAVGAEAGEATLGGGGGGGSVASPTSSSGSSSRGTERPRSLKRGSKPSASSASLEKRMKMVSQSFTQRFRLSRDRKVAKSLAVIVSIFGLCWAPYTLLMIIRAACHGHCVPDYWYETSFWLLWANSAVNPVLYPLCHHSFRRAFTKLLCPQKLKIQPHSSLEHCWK

[4] = molecular target: Androgen (Testosterone) AR (Rattus norvegicus (Rat), UniProt P15207); assay: Radioligand binding assay No. 285010; settings: test substance 10 μM, read-out: Inhibitory rate (%), Androgen (Testosterone) AR
Chain of Androgen (Testosterone) AR (P15207 whole entry S389L): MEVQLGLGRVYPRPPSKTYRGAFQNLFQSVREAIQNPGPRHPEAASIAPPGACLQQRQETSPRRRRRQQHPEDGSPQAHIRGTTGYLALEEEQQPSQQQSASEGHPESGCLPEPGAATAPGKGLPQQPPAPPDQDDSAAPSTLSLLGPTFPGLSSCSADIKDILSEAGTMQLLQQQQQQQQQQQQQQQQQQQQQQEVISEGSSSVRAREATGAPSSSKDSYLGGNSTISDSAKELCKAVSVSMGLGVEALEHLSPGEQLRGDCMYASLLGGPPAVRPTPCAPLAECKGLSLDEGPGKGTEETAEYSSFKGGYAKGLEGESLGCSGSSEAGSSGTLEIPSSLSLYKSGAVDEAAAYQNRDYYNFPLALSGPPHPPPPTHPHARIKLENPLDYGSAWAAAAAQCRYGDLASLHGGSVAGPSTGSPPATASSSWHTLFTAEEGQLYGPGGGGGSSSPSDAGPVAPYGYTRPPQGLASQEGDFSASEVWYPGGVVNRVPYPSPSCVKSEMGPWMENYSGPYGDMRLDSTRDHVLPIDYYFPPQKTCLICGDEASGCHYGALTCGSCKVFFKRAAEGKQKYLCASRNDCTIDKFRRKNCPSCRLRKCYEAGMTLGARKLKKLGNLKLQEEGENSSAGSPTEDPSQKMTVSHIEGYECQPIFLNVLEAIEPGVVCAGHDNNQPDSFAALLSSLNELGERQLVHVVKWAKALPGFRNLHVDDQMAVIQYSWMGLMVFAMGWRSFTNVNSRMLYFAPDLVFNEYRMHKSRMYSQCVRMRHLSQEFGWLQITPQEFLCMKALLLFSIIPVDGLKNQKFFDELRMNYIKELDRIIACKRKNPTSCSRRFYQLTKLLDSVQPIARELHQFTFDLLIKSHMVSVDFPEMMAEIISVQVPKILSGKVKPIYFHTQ

[5] = molecular target: Transporter, Norepinephrine (NET) (Homo sapiens (Human), UniProt P23975); assay: Radioligand binding assay No. 204410; settings: test substance 10 μM, read-out: Inhibitory rate (%), Transporter, Norepinephrine (NET)
Chain of Transporter, Norepinephrine (NET) (P23975 whole entry): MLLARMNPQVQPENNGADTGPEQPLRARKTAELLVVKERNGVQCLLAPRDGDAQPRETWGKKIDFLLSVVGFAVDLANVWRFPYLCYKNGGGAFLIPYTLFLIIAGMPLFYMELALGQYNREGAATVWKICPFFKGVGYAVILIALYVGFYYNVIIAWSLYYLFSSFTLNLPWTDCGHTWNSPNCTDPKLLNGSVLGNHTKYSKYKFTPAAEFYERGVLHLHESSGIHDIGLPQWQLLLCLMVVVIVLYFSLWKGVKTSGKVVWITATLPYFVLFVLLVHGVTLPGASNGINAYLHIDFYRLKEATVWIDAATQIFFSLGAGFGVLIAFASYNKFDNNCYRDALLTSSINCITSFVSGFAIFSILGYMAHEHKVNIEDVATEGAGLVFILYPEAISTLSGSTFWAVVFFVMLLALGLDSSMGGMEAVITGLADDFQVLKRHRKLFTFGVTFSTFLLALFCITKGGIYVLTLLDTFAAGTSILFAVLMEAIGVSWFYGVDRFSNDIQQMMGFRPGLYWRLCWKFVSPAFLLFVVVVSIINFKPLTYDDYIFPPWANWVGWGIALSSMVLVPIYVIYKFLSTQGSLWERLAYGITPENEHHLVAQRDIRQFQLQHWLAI

[6] = system: U87MG; assay: In vitro cytological inhibitory activity (XTT); assay type: cell-based; settings: Homo sapiens, U-87 MG, 72 hrs
Description: U87MG: Human brain astrocytoblast cell line;
as §1, §2

Compound	AUC(0-inf) ([1]; iv, I.V, 2 mg/kg) [ng·h/mL]	AUC(0-t) ([1]; iv, I.V, 2 mg/kg) [ng·h/mL]	clearance ([1]; iv, I.V, 2 mg/kg) [mL/min/kg]	half-life ([1]; iv, I.V, 2 mg/kg) [h]	Vd ([1]; iv, I.V, 2 mg/kg) [L/kg]	bioavailability ([1]; po) [%]	AUC(0-inf) ([1]; po, P.O, 4 mg/kg) [ng·h/mL]	AUC(0-t) ([1]; po, P.O, 4 mg/kg) [ng·h/mL]	Cmax ([1]; po, P.O, 4 mg/kg) [ng/mL]	Tmax ([1]; po, P.O, 4 mg/kg) [h]	half-life ([1]; po, P.O, 4 mg/kg) [h]	IC50 [2] [nM]	inhibition at 10 µM [3] [%]	inhibition at 10 µM [4] [%]	inhibition at 10 µM [5] [%]	IC50 [6] [nM]
Nc1ccc(-c2ccc3ncc4c(=O)[nH]c(=O)n(-c5cccc(C(F)(F)F)c5)c4c3n2)cn1 [Compound 5, 9-(6-aminopyridin-3-yl)-1-(3-(trifluoromethyl)phenyl)pyrimido[5,4-c][1,5]naphthyridine-2,4(1H,3H)-dione]	9360	9130	3.5	4.72	1.26	14	2590	2550	205	6	5.77	50.1	16	30	-5	
O=c1[nH]c(=O)n(-c2cccc(C(F)(F)F)c2)c2c1cnc1ccc(-c3cnc4[nH]ccc4c3)nc12 [Compound 30, 9-(1H-pyrrolo[2,3-b]pyridin-5-yl)-1-(3-(trifluoromethyl)phenyl)pyrimido[5,4-c][1,5]naphthyridine-2,4(1H,3H)-dione]	3070	3050	11	3.89	1.85	12.8	785	654	54.8	2	9.42					28.3
